The text below walks through data of ChEMBL document CHEMBL1201862, “PubChem BioAssay data set” (2004).

Active and inactive are the calls of the source. Some results are limits rather than exact numbers.

In assay [1] the test system is Streptococcus sp. 'group A'. Put plainly: Streptococcus pyogenes SK(-)GAS viability under kanamycin – luminescence, BacTiterGlo, confirmation, counter-screen for streptokinase expression inhibitor project, dose response (AID 1900). Format: functional, organism-based.
In assay [2] the target is Intestinal-type alkaline phosphatase (Mus musculus, UniProt P24822). Nature of the assay: mouse intestinal alkaline phosphatase activators, dose response, biochemical, luminescence, uHTS hits (AID 488783). Format: functional.
For assay [3], the target named is Dual specificity protein phosphatase 3 (Homo sapiens, UniProt P51452). Put plainly: VHR1 phosphatase inhibitors, primary screen, biochemical, absorbance, uHTS (AID 1654).
Assay [4] concerns the target Small ubiquitin-related modifier 1 (Homo sapiens, UniProt P63165). Put plainly: SUMO1 protein interaction blockers, potency – biochemical, fluorescence polarization, uHTS hits, dose response (AID 624382). Format: functional. As to conditions: read-out: IC50_Mean.
Assay [5] deals with Serine/threonine-protein phosphatase PP1-alpha catalytic subunit (Homo sapiens, UniProt P62136). Nature of the assay: inhibition of protein phosphatase 1 activity – biochemical, fluorescence, dose response (AID 2394).
The target in another assay is T1, Caspase-3 (Homo sapiens, UniProt P42574).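 Note: Dose-response selectivity test against caspase-3 for candidate inhibitors of sentrin-specific proteases (SENPs).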
T1 sequence (P42574 whole entry): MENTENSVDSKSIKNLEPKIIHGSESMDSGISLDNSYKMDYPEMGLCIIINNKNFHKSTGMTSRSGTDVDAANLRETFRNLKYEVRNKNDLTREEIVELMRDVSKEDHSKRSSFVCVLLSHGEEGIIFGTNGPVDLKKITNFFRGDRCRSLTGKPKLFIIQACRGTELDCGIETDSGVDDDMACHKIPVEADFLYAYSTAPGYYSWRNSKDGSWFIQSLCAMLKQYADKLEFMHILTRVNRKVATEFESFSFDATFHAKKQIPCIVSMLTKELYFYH
The format is functional.

Sequence of Dual specificity protein phosphatase 3 (P51452 whole entry): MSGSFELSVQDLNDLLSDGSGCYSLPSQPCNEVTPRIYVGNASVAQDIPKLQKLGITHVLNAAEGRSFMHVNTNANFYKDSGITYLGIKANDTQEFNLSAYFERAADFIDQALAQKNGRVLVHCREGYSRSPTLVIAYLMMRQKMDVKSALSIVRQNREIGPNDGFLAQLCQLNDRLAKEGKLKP
Sequence of Intestinal-type alkaline phosphatase (P24822 whole entry): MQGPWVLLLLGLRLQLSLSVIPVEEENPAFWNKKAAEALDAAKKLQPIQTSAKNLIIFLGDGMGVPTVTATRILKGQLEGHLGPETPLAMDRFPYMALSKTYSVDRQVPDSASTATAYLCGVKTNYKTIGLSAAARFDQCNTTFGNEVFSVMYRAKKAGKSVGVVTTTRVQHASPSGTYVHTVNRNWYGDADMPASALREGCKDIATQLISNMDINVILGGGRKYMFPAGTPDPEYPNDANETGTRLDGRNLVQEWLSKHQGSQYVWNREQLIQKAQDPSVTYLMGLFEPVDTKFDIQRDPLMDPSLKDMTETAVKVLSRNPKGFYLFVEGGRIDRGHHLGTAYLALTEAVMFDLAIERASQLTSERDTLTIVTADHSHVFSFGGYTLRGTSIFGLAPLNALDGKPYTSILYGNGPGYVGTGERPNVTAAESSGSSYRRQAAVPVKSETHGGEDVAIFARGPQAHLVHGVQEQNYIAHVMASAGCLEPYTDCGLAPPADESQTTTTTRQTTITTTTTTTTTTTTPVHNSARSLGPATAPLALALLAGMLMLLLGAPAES
Sequence of Serine/threonine-protein phosphatase PP1-alpha catalytic subunit (P62136 whole entry): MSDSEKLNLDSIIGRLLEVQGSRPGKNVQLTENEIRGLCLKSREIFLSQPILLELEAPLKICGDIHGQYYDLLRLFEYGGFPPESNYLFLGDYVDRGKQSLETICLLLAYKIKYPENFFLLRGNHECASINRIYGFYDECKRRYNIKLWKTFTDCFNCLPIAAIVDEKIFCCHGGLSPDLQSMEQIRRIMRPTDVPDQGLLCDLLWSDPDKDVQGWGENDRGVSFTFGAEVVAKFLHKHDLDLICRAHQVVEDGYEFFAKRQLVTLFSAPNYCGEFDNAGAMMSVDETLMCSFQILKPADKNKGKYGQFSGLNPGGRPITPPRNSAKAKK
Sequence of Small ubiquitin-related modifier 1 (P63165 whole entry): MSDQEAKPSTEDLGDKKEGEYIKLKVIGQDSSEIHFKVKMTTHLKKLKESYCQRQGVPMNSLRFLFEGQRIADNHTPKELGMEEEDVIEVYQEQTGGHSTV

`O=C1c2ccccc2C(=O)c2[nH]c(O)nc21`: the EC50 in assay [1] was 4.23 µM (active).
On to `NS(=O)(=O)c1cc(C(=O)NC2CCSc3ccccc32)ccc1Cl` (stereo unspecified), for which the EC50 in assay [2] was 5.57 µM (active). Also, the IC50 was < 1.23 µM (inactive) in assay [3] and 4.11 µM (active) in assay [4].
Turning to `CCOC(=O)C1=C(C)OC2(O)c3ccccc3C(=O)C12O` (stereo unspecified), the figures for the IC50 (in assay [5]; at Caspase-3) were 49 µM (not active) and > 100 µM (inactive), respectively.
